The source of these data is patent US11667649B2, “Heteroaromatic macrocyclic ether chemotherapeutic agents” (Nuvalent, Inc., priority 2020, dated 2023).

Where two headings read alike, the source gives them in different places.

For data set [1] the following is noted: cc_pd bond, 12-membered ring.
For the next data set, the system named is ROS1-positive NSCLC. To be noted: treatment of ROS1-positive NSCLC; cited from earlier work.
Data set [2] concerns TPM3-NTRK1-wt IC50 / primary target (e.g. CD74-ROS1-wt) IC50, Ba/F3 cells. Nature of the data set: Cell assay TRKA selectivity (TRKA potency divided by primary target potency). The data set is classed as cell-based. In outline:
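Ratio of TRKA to primary-target cellular IC50 (e.g. TPM3-NTRK1-wt/CD74-ROS1-wt), grouped into bins A >30, B >10, C ≥1, D <1. Each IC50 came from engineered Ba/F3 fusion lines grown without IL-3, dosed for 72 h and read as CellTiter-Glo luminescence, with a four-parameter logistic fit.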

The compound `CC(Oc1cc(Br)cnc1N)c1cc(F)ccc1-c1c(Cn2cnc(C#N)c2)cnn1C` (stereo not drawn) returned a ring closure, yield after HPLC in data set [1] (the molecule shown is the open-chain precursor, Pd(OAc)2/cataCXium A/KOAc, 2-methyl-2-butanol, 30.0 mM, 120.0 °C) of 5.9%. Regarding `CCc1noc2c1-c1cnc(N)c(n1)O[C@H](C)c1cc(F)ccc1-c1nn(C)cc1C2`, in data set [1] (from CCc1cc(Cc2cn(C)nc2-c2ccc(F)cc2[C@@H](C)Oc2nc(Br)cnc2N)on1, Pd(OAc)2/cataCXium A/KOAc, 2-methyl-2-butanol, 20.0 mM, 120.0 °C, 6.0 h), the ring closure, yield after HPLC is 24%. As for `CCn1ncc2c1-c1cnc(N)c(c1)OC(C)c1cc(F)ccc1-c1nccn1C2` (stereo not drawn), in data set [1] (from CCn1ncc(Cn2ccnc2-c2ccc(F)cc2C(C)Oc2cc(Br)cnc2N)c1Br, B2pin2/Pd(OAc)2/cataCXium A/NaOH, MeOH/H2O, 57.0 mM, 75.0 °C, 3.0 h), the ring closure, yield after HPLC was found to be 10%. In data set [1] (from CCn1ncc(Cc2cn(C)nc2-c2ccc(F)cc2[C@@H](C)Oc2cc(Br)cnc2N)c1Br, B2pin2/Pd(OAc)2/cataCXium A/NaOH, MeOH/H2O, 41.0 mM, 80.0 °C, 12.0 h), `CCn1ncc2c1-c1cnc(N)c(c1)O[C@H](C)c1cc(F)ccc1-c1nn(C)cc1C2` gave a ring closure, yield after HPLC of 10%.

In turn, `C[C@H]1Oc2cc(cnc2N)-c2c(C#N)cnn2Cc2cn(C)nc2-c2ccc(F)cc21` had a ring closure, yield after HPLC in data set [1] (from C[C@@H](Oc1cc(Br)cnc1N)c1cc(F)ccc1-c1nn(C)cc1Cn1cc(C#N)cn1, Pd(OAc)2/cataCXium A/KOAc, 2-methyl-2-butanol, 32.0 mM, 120.0 °C) of 15%.

As for `C[C@@H](Oc1cc(-c2cnn(C3CCNCC3)c2)cnc1N)c1c(Cl)ccc(F)c1Cl` [Crizotinib, crizotinib], in the data set on ROS1-positive NSCLC, the median progression-free survival is on record as 9-19 months and the overall response rate was 60-80%. In data set [1] (from CCc1nn(C)c(Cc2cccnc2-c2ccc(F)cc2COc2cc(Br)cnc2N)c1Br, B2pin2/Pd(OAc)2/cataCXium A/CsF, MeOH/H2O, 17.0 mM, 80.0 °C, 5.0 h), `CCc1nn(C)c2c1-c1cnc(N)c(c1)OCc1cc(F)ccc1-c1ncccc1C2` [Example 170, 3-ethyl-17-fluoro-5-methyl-21-oxa-4,5,12,24-tetraazapentacyclo[20.3.1.0^2,^6.0^8,^13.0^14,^19]hexacosa-1(25),2(6),3,8(13),9,11,14,16,18,22(26),23-undecaen-23-amine] displayed a ring closure, yield after HPLC of 3.3%. Also, the TPM3-NTRK1-wt/CD74-ROS1-G2032R entry in data set [2] (TRKA selectivity ratio: TPM3-NTRK1-wt IC50 / CD74-ROS1-G2032R IC50, Ba/F3 cells) was “A (bin A for very high selectivity, ratio>30-fold)”. Further, in data set [2] (TRKA selectivity ratio: TPM3-NTRK1-wt IC50 / CD74-ROS1-wt IC50, Ba/F3 cells), the TPM3-NTRK1-wt/CD74-ROS1-wt result is listed as “A (bin A for very high selectivity, ratio>30-fold)”. Moreover, the TPM3-NTRK1-wt/EML4-ALK-L1196M-G1202R entry in data set [2] (TRKA selectivity ratio: TPM3-NTRK1-wt IC50 / EML4-ALK-L1196M-G1202R IC50, Ba/F3 cells) is “B (bin B for high selectivity, ratio>10-fold)”. Also, the TPM3-NTRK1-wt/EML4-ALK-wt result in data set [2] (TRKA selectivity ratio: TPM3-NTRK1-wt IC50 / EML4-ALK-wt IC50, Ba/F3 cells) was “A (bin A for very high selectivity, ratio>30-fold)”.
